Test results reported in paper PMC9293210, “Molecular Recognition of Natural and Non‐Natural Substrates by Cellodextrin Phosphorylase from Ruminiclostridium Thermocellum Investigated by NMR Spectroscopy” (Chemistry (Weinheim an Der Bergstrasse, Germany), 2021).

Columns and labels:
[1] = biological target: T1, cellodextrin phosphorylase (CDP) (Acetivibrio thermocellus, UniProt Q93HT8); assay: STD NMR, binding epitope mapping; tr-NOESY; details: [D11]Tris 25 mM pH 7.4, NaCl 100 mM, 278 K (STD); tr-NOESY 290 K; 3 mM ligand, 15 uM binding sites (STD); acceptor site
T1 construct: gene cdp-ym4; 1009 amino acids, 114 kDa per monomer, homodimer
T1 sequence (Q93HT8 1-984): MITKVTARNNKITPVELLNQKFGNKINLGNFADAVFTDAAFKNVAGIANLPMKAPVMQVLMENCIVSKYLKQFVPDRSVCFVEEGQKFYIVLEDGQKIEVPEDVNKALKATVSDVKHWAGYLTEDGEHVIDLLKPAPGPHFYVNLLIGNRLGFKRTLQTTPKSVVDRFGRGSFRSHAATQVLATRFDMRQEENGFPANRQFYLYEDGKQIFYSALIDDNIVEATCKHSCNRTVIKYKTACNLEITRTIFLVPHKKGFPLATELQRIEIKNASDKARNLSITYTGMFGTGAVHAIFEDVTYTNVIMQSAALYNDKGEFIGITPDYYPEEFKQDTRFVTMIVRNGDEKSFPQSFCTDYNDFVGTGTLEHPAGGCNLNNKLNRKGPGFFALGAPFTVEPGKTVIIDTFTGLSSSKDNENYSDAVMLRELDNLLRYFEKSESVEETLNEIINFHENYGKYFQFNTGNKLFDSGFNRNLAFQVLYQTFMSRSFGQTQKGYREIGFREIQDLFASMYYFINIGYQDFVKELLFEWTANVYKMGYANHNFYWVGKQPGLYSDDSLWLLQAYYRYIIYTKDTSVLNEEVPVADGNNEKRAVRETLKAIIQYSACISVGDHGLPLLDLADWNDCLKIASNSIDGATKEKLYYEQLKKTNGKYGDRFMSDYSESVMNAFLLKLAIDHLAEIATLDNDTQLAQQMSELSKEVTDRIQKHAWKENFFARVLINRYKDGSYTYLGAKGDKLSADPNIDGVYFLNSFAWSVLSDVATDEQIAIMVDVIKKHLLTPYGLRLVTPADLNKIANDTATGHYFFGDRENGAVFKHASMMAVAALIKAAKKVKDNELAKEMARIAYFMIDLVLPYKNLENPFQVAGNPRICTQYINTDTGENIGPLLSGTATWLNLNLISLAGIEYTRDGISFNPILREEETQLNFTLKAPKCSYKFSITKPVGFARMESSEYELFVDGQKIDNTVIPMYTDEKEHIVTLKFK

[2] = biological target: T1, cellodextrin phosphorylase (CDP); assay: STD NMR titration (STD-AF of H4beta, […] s saturation); assay type: binding; details: [D11]Tris 25 mM pH 7.4, NaCl 100 mM; no phosphate; apparent
[3] = biological target: T1, cellodextrin phosphorylase (CDP); assay: STD NMR, binding epitope mapping; details: [D11]Tris 25 mM pH 7.4, NaCl 100 mM, 278 K; 3 mM ligand, 15 uM binding sites; acceptor site

**Q.** OC[C@H]1O[C@@H](O[C@H]2[C@H](O)[C@@H](CO)OC(O)[C@@H]2O)[C@H](O)[C@@H](O)[C@@H]1O (stereo partly drawn) [D-laminaribiose] was tested. Which “STD NMR, binding epitope mapping; tr-NOESY” value [1] did it give?
**A.** Its value is “H2 of the non‐reducing glucose ring received the largest saturation transfer”.

**Q.** OC[C@H]1O[C@@H](O[C@H]2[C@H](O)[C@@H](O)C(O)O[C@@H]2CO)[C@H](O)[C@@H](O)[C@@H]1O (stereo partly drawn) [D-cellobiose] was tested. Which Kd [2] did it give?
**A.** Its Kd is 2200 µM.

**Q.** How did the “STD NMR, binding epitope mapping” value [3] turn out when OC[C@H]1O[C@@H](O[C@H]2[C@H](O)[C@@H](O)[C@H](O[C@H]3[C@H](O)[C@@H](O)C(O)O[C@@H]3CO)O[C@@H]2CO)[C@H](O)[C@@H](O)[C@@H]1O (stereo partly drawn) [D-cellotriose] was run?
**A.** Its value is “D‐cellotriose showed contacts for both the reducing α‐ and β‐glucose rings”.
